The text below walks through data of US6489341B1 (Sepracor Inc., priority 1999, dated 2002).

Where two headings read alike, the source gives them in different places.

As usually defined, the Ki is a measure of affinity in units of concentration, obtained from inhibition or displacement. The IC50 is the midpoint of a concentration-inhibition curve.

For assay [1], the target named is non-selective α1 receptor from rat cerebral cortex. Kind of assay: Binding affinity at non-selective α1 receptor. Conditions: for Ki: calculated inhibition constant, in parentheses; for IC50: concentration required to inhibit 50% specific binding.
In assay [2] the target is T1, human recombinant dopamine D2 receptor (Homo sapiens, UniProt P14416).
T1 construct: expressed in transfected cells
T1 sequence (P14416 whole entry): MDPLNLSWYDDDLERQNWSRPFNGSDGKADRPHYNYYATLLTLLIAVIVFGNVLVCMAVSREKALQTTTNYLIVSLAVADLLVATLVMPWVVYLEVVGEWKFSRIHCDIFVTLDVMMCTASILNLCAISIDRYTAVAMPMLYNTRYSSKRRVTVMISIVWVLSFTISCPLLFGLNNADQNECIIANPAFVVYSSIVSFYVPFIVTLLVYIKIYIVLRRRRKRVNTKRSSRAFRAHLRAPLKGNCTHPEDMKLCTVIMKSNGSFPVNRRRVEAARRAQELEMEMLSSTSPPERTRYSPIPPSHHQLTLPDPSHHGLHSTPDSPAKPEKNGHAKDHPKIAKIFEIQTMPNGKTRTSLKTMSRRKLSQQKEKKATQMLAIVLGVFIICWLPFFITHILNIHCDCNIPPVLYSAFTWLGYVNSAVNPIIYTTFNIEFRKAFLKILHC
Kind of assay: Binding affinity at dopamine D2 receptor. The following applies: for Ki: calculated inhibition constant, in parentheses; for IC50: concentration required to inhibit 50% specific binding.

In assay [3] the target is T2, human recombinant serotonin 5-HT2A receptor (Homo sapiens, UniProt P28223).
T2 construct: expressed in transfected cells
T2 sequence (P28223 whole entry): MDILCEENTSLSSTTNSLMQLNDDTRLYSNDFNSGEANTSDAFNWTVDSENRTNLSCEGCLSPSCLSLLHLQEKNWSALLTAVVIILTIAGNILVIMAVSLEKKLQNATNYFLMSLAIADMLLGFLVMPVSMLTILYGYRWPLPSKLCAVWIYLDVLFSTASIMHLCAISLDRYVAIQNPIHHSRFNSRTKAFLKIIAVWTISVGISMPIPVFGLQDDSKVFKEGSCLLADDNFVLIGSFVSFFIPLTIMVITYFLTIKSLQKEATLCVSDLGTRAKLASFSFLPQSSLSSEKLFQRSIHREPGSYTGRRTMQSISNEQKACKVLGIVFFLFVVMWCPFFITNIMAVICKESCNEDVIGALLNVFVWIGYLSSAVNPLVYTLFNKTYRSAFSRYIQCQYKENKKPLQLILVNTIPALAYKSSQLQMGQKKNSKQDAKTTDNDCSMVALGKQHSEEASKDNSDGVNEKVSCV
Kind of assay: Binding affinity at serotonin 5-HT2A receptor. Conditions: for selectivity for 5-HT2A receptors versus D2 receptors (in words): conclusion from Table 1; for 5-HT2A Selectivity (D2/5-HT2A): ratio of D2 to 5-HT2A IC50.

The target of assay [4] is T3, human recombinant dopamine D4 receptor (Homo sapiens, UniProt P21917).
T3 construct: expressed in transfected cells
T3 sequence (P21917 1-419): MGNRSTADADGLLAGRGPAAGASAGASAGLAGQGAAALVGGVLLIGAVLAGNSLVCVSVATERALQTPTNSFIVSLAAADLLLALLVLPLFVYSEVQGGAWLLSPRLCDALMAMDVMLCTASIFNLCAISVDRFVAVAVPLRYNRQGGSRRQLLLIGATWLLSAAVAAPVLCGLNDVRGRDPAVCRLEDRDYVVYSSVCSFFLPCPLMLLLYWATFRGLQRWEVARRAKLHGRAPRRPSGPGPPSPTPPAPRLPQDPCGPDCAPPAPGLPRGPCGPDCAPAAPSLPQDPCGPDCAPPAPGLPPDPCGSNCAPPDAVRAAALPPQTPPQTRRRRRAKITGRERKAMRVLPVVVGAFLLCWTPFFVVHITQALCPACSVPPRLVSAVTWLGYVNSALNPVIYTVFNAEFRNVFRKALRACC
Kind of assay: Binding affinity at dopamine D4 receptor. The following applies: for Ki: calculated inhibition constant, in parentheses; for IC50: concentration required to inhibit 50% specific binding.

Setting [5] is: calculated inhibition constant, in parentheses, human recombinant, read-out: Ki by Receptor 5-HT2A.
The mark [6] stands for this setting: concentration required to inhibit 50% specific binding, human recombinant, read-out: IC50 by Receptor 5-HT2A.

Take `O=C1CNC(=O)N1CCN1CCC(c2cn(-c3ccc(F)cc3)c3ccc(Cl)cc23)CC1` [5-Oxo, 1-[2-[4-[5-chloro-1-(4-fluorophenyl)-1H-indol-3-yl]piperidin-1-yl]ethyl]midazolidin-2,5-dione]: the Ki is 3.3 nM in assay [1], 11 nM in assay [2], 11 nM in assay [3] (setting [5]) and 96 nM in assay [4]. Moreover, the IC50 in assay [1] stood at 12 nM; in assay [2], 44 nM; in assay [3] (setting [6]) it was 18 nM; in assay [4], 315 nM. In assay [3], the “selectivity for 5-HT2A receptors versus D2 receptors (in words)” value is “greater selectivity for 5-HT2A receptors than for D2 receptors”. In assay [3], the “5-HT2A Selectivity (D2/5-HT2A)” value came to 2.4.
As to `Fc1ccc(-n2cc(C3=CCNCC3)c3cc(Cl)ccc32)cc1` [Dehydro-Nor], the Ki was 28 nM in assay [1], 8.8 nM in assay [2], 16 nM in assay [3] and 116 nM in assay [4]. For the same compound, the IC50 turned out to be 102 nM in assay [1], 34 nM in assay [2], 25 nM in assay [3] and 379 nM in assay [4]. Besides, the “5-HT2A Selectivity (D2/5-HT2A)” value in assay [3] stood at 1.4.
For the compound `Fc1ccc(-n2cc(C3=CCNCC3)c3cc(Cl)ccc32)cc1` [Nor, 5-chloro-1-(4-fluorophenyl)-3-(1,2,3 6-tetrahydropvridin-4-yl)indole], the Ki was 13 nM in assay [1], 20 nM in assay [2], 11 nM in assay [3] (setting [5]) and 333 nM in assay [4]. Moreover, the IC50 was 49 nM in assay [1], 78 nM in assay [2], 17 nM in assay [3] (setting [6]) and 1090 nM in assay [4]. Also, in assay [3], the “selectivity for 5-HT2A receptors versus D2 receptors (in words)” value was “greater selectivity for 5-HT2A receptors than for D2 receptors”. In addition, in assay [3], the “5-HT2A Selectivity (D2/5-HT2A)” value amounted to 4.6.
Turning to `COc1cc2nc(N3CCN(C(=O)c4ccco4)CC3)nc(N)c2cc1OC` [Prazosin, reference compound], in assay [1], the Ki is 0.087 nM and the IC50 was 0.32 nM.
The corresponding values for `O=C1NCCN1CCN1CCC(c2cn(-c3ccc(F)cc3)c3ccc(Cl)cc23)CC1` [Sertindole, 1-[2-[4-[5-chloro-1-(4-fluorophenyl)-1H-indol-3-yl]-1-piperidinyl]ethyl]-2-imidazolidinone, reference compound] are 1.7 nM and 6.2 nM.
